From patent US3932619A, “Metabolite A-27106 and processes for its preparation and use” (Eli Lilly and Company, priority 1974, dated 1976)
Structures can show the parent of a compound that is named as a salt.

Assays:
[1] = Electrometric titration (pKa); type: physicochemical; settings: pH 8; electrometric titration in water, initial pH of 8
Excerpt: The acid form of metabolite A-27106 is a white amorphous solid, having a molecular weight of about 832.

mice = test: Acute intraperitoneal toxicity in groups of six mice; type: in vivo; settings: for mice died: six mice
Protocol: In tests when metabolite A-27106 sodium salt was administered intraperitoneally to groups of six mice each:
In similar tests, when monensin sodium salt was administered intraperitoneally to groups of six mice each: […]

coccidiosis = test: Other studies with A-27106 sodium salt alone and combined with monensin in the diet; type: in vivo, birds
Protocol: Numerous other studies were carried out with metabolite A-27106 sodium salt, both alone and in combination with monensin.

birds = test: Other studies: palatability and toxicity in birds; type: in vivo
Eimeria tenella = test: Control of coccidiosis in chicks inoculated with Eimeria tenella, drug in feed; type: in vivo; settings: for Avg. Wt. Gain/Bird: 7 days after inoculation; for Lesion Scores: number of birds at score 0 / Lesion Scores: number of birds at score 1 / Lesion Scores: number of birds at score 2 / Lesion Scores: number of birds at score 3 / Lesion Scores: number of birds at score 4: of 15 birds
Protocol: A group of 75 one-week-old, healthy, incubator and battery-reared, cross-bred male chicks, of a heavy broiler type was used. The birds were divided into five groups of 15 birds having three replicates of five-bird subgroups each. Each subgroup was reared out of contact with the other subgroups. A first group was held as an untreated healthy control under favorable conditions. A second group was treated as the first group, but was inoculated with coccidiosis by oral administration of a dose containing 10^5 sporulated oocysts of Eimeria tenella. The third, fourth and fifth groups were treated as the second group except that, 24 hours before the said inoculation, their feed was modified by addition of metabolite A-27106 sodium salt in concentrations of 100, 150, and 200 parts per million (ppm), respectively.
Seven days after inoculation, the birds were weighed, sacrificed and examined for evidence of coccidial lesions. Coccidial involvement was expressed on an arbitrary scale of zero to four. Lesion scores indicate the number of birds at each level. Zero indicates no evidence of coccidiosis. One designates the least coccidial involvement that can be seen. Two indicates moderate involvement with little or no hemorrhage and no severe tissue damage. Three indicates hemorrhage, swelling of the caeca, and extensive tissue involvement. Four indicates hemorrhage, a caecal core of clotted blood and debrided epithelial cells. Birds scoring […] or less usually recover if not further infected with coccidia.

rumen fluid = test: Volatile fatty acid production in incubated diluted rumen fluid; design: species or system steer; settings: 16 hours, 38°C.
Excerpt: Rumen fluid is obtained from a steer with a surgically-installed fistula opening into the rumen. The steer is maintained on a high-grain ration, the composition of which follows:
A sample of rumen fluid is strained through four layers of cheesecloth, and the filtrate is collected. The particulate matter retained by the cheesecloth is resuspended in enough physiological buffer to return it to the original volume of the rumen fluid, and this suspension is strained again. The buffer used has the following composition:
The two filtrates are combined and allowed to stand until particulate matter separates to the top. The clear layer is separated, diluted with the same buffer (1:1) and then adjusted to pH 7.0.
The diluted rumen fluid (10 ml.) is placed in a 25-ml. flask with 40 mg. of the above-described feed, an additional 5 mg. of soybean protein, and the compound to be tested. Four replicate flasks are used per treatment. Two sets of four control flasks each are also employed. A zero-time control and an incubated 16-hour control are used. All test flasks are incubated for 16 hours at 38°C. After incubation the pH is measured, and 25 percent metaphosphoric acid (2 ml.) is added to each flask. The samples are allowed to settle, and the supernatant is analyzed by gas chromatography for propionate, acetate, and butyrate compounds.
Test-compound results are statistically compared with the control results.

[2] = Solubility in organic solvents; type: physicochemical
[3] = medicated birds with high lesion scores
[4] = 0.2 mcg./ml. diluted rumen fluid

For `CCC1(C2OC(C3OC(O)(COC4OC(CO)C(O)C(O)C4O)C(C)CC3C)CC2C)CCC(C2(C)CCC3(CC(O)C(C)C(C(C)C(OC)C(C)C(=O)O)O3)O2)O1` (stereo not drawn) [Metabolite A-27106], which pKa [1] is on record?
The pKa was 7.2.

What about the “toxicity compared with monensin” value (mice; mice) of the same compound?
Its value is “less toxic than monensin”.

For `CC[C@@]1([C@@H]2O[C@@H]([C@H]3O[C@@](O)(CO)[C@H](C)C[C@@H]3C)C[C@@H]2C)CC[C@H]([C@]2(C)CC[C@]3(C[C@H](O)[C@@H](C)[C@@H]([C@@H](C)[C@@H](OC)[C@H](C)C(=O)O)O3)O2)O1` [monensin sodium salt, reference compound], which mice died (mice; 10 mg./kg.) is on record?
The mice died was “one out of six died”.

What about the mice died (mice; 20 mg./kg.) of the same compound?
The mice died was “three out of six died”.

For `CCC1(C2OC(C3OC(O)(COC4OC(CO)C(O)C(O)C4O)C(C)CC3C)CC2C)CCC(C2(C)CCC3(CC(O)C(C)C(C(C)C(OC)C(C)C(=O)O)O3)O2)O1` (stereo not drawn) [metabolite A-27106 sodium salt], which weight gains (coccidiosis; 0.04 percent versus 0.01 percent in diet) is on record?
Its weight gains is “no greater weight gains at 0.04 percent than at 0.01%”.

And the toxicity (coccidiosis; higher rate (0.04 percent))?
Its toxicity is “no evidence of toxicity”.

And the caecal lesions (coccidiosis; higher rate (0.04 percent) versus 0.01 percent)?
The caecal lesions was “fewer caecal lesions”.

And the mice died (mice; 50 mg./kg.)?
Its mice died is “one out of six died”.

What about the mice died (mice; 100 mg./kg.) of the same compound?
The mice died was “three out of six died”.

What about the “toxicity compared with monensin” value (birds) of the same compound?
The value was “less toxic than was monensin”.

And the “Avg. Wt. Gain/Bird” value (Eimeria tenella; 100 ppm in the diet)?
The value was 157 Grams.

And the “Lesion Scores: number of birds at score 0” value (shortened to “Lesion Scores … at score 0”) (Eimeria tenella; 100 ppm in the diet)?
Its value is 4.

And the “Lesion Scores: number of birds at score 1” value (from here on “Lesion Scores … at score 1”) (Eimeria tenella; 100 ppm in the diet)?
The value was 1.

What about the “Lesion Scores: number of birds at score 2” value (“Lesion Scores … at score 2” for short) (Eimeria tenella; 100 ppm in the diet) of the same compound?
The value was 0.

What about the “Lesion Scores: number of birds at score 3” value (“Lesion Scores … at score 3” for short) (Eimeria tenella; 100 ppm in the diet) of the same compound?
Its value is 3.

What about the “Lesion Scores: number of birds at score 4” value (“Lesion Scores … at score 4” for short) (Eimeria tenella; 100 ppm in the diet) of the same compound?
Its value is 7.

What about the “Avg. Wt. Gain/Bird” value (Eimeria tenella; 150 ppm in the diet) of the same compound?
The value was 150 Grams.

And the “Lesion Scores … at score 0” value (Eimeria tenella; 150 ppm in the diet)?
Its value is 3.

And the “Lesion Scores … at score 1” value (Eimeria tenella; 150 ppm in the diet)?
Its value is 3.

What about the “Lesion Scores … at score 2” value (Eimeria tenella; 150 ppm in the diet) of the same compound?
The value was 1.

What about the “Lesion Scores … at score 3” value (Eimeria tenella; 150 ppm in the diet) of the same compound?
The value was 1.

What about the “Lesion Scores … at score 4” value (Eimeria tenella; 150 ppm in the diet) of the same compound?
Its value is 7.

What about the “Avg. Wt. Gain/Bird” value (Eimeria tenella; 200 ppm in the diet) of the same compound?
The value was 166 Grams.

And the “Lesion Scores … at score 0” value (Eimeria tenella; 200 ppm in the diet)?
The value was 5.

What about the “Lesion Scores … at score 1” value (Eimeria tenella; 200 ppm in the diet) of the same compound?
The value was 0.

And the “Lesion Scores … at score 2” value (Eimeria tenella; 200 ppm in the diet)?
The value was 0.

What about the “Lesion Scores … at score 3” value (Eimeria tenella; 200 ppm in the diet) of the same compound?
The value was 0.

What about the “Lesion Scores … at score 4” value (Eimeria tenella; 200 ppm in the diet) of the same compound?
Its value is 10.

And the condition of birds (Eimeria tenella; [3])?
The condition of birds was “appeared to be in good condition”.

And the fecal blood (Eimeria tenella; [3])?
The fecal blood was “scanty or absent”.

And the “Butyrate, ratio of concentration in treated to control flasks” value (“Butyrate, ratio of concentration” for short) (rumen fluid; [4])?
Its value is 0.91.

What about the “Propionate, ratio of concentration in treated to control flasks” value (shortened to “Propionate, ratio of concentration”) (rumen fluid; [4]) of the same compound?
The value was 1.02.

And the “Total VFA, ratio of concentration in treated to control flasks” value (from here on “Total VFA, ratio of concentration”) (rumen fluid; [4])?
The value was 1.07.

What about the “Butyrate, ratio of concentration” value (rumen fluid; 1 mcg./ml. diluted rumen fluid) of the same compound?
The value was 0.96.

And the “Propionate, ratio of concentration” value (rumen fluid; 1 mcg./ml. diluted rumen fluid)?
Its value is 1.42.

And the “Total VFA, ratio of concentration” value (rumen fluid; 1 mcg./ml. diluted rumen fluid)?
Its value is 0.98.

And the “Butyrate, ratio of concentration” value (rumen fluid; 5 mcg./ml. diluted rumen fluid)?
The value was 0.73.

What about the “Propionate, ratio of concentration” value (rumen fluid; 5 mcg./ml. diluted rumen fluid) of the same compound?
The value was 2.15.

And the “Total VFA, ratio of concentration” value (rumen fluid; 5 mcg./ml. diluted rumen fluid)?
The value was 1.03.

And the solubility ([2]; highly polar solvents)?
The solubility was “readily soluble”.

And the solubility ([2]; liquid lower alkanes)?
Its solubility is “relatively insoluble”.

And the solubility ([2]; lower aliphatic alcohols)?
The solubility was “soluble”.

What about the solubility ([2]; nonpolar solvents) of the same compound?
Its solubility is “insoluble”.

What about the solubility ([2]; phenol, diethyl ether and acetone) of the same compound?
The solubility was “partially soluble”.

And the solubility ([2]; solvents of intermediate polarity)?
The solubility was “varies in solubility”.
